Measured values reported in patent publication US9963458B2, “Indole and indoline-type piperidine compounds and uses thereof” (priority 2012, dated 2018).

How the values were obtained:
Type in all cases: in vitro ADME
Settings in all cases: procedure of Example 14
[1] = molecular target: T1, CYP1A2 (Homo sapiens, UniProt P05177); assay: Cytochrome P450 inhibition, pooled human hepatic microsome
T1 sequence (P05177 1-516): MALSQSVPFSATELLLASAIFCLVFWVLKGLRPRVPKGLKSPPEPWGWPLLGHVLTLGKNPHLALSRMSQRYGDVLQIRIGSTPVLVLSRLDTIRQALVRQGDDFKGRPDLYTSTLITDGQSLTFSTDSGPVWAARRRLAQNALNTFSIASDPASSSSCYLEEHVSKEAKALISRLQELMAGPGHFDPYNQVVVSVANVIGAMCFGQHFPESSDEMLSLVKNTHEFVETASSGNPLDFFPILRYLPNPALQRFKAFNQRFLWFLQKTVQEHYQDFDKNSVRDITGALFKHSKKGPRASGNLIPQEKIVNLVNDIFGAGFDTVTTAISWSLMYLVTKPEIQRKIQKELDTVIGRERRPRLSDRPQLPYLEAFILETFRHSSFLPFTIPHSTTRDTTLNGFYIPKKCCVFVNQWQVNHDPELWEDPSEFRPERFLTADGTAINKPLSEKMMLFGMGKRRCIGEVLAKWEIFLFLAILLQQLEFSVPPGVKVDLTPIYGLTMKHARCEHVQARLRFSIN

[2] = molecular target: T2, CYP2D6 (Homo sapiens, UniProt P10635); assay: Cytochrome P450 inhibition, pooled human hepatic microsome (O-demethylation of dextromethorphan)
T2 construct: 0.2 mg protein/mL pooled human hepatic microsome enzyme; from tissue; host or cells: pooled human hepatic microsomes

[3] = molecular target: T3, CYP3A4 (Homo sapiens, UniProt P08684); assay: Cytochrome P450 inhibition, pooled human hepatic microsome
T3 construct: 0.2 mg protein/mL pooled human hepatic microsome enzyme; from tissue; host or cells: pooled human hepatic microsomes

[4] = molecular target: T4, CYP2C9 (Homo sapiens, UniProt P11712); assay: as above
T4 construct: 0.2 mg protein/mL pooled human hepatic microsome enzyme; from tissue; host or cells: pooled human hepatic microsomes
T4 sequence (P11712 whole entry): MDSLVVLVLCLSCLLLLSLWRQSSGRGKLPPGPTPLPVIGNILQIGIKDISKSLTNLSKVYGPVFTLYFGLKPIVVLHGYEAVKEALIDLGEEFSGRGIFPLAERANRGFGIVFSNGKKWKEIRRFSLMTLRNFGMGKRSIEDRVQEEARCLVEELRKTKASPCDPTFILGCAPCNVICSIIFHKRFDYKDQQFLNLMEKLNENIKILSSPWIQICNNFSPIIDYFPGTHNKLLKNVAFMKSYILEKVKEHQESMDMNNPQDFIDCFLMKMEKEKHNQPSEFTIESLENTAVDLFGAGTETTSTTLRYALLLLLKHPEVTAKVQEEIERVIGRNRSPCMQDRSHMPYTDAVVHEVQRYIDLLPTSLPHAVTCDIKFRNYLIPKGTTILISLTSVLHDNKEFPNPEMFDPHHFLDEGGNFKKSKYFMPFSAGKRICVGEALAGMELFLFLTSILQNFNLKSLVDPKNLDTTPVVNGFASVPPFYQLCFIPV

T3 sequence (P08684 whole entry): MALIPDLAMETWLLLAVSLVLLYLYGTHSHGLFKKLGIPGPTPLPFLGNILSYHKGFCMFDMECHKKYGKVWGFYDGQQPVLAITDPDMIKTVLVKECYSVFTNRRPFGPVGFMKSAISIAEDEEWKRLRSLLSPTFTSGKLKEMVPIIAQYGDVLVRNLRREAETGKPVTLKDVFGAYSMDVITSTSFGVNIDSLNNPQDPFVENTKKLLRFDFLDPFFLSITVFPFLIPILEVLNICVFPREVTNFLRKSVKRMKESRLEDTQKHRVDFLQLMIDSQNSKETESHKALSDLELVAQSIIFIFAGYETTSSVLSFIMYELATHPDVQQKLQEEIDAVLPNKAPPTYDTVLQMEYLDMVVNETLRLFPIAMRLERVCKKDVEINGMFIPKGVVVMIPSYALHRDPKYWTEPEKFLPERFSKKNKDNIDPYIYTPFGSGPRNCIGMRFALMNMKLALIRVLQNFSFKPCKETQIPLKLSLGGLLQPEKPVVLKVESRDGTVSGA
T2 sequence (P10635 whole entry): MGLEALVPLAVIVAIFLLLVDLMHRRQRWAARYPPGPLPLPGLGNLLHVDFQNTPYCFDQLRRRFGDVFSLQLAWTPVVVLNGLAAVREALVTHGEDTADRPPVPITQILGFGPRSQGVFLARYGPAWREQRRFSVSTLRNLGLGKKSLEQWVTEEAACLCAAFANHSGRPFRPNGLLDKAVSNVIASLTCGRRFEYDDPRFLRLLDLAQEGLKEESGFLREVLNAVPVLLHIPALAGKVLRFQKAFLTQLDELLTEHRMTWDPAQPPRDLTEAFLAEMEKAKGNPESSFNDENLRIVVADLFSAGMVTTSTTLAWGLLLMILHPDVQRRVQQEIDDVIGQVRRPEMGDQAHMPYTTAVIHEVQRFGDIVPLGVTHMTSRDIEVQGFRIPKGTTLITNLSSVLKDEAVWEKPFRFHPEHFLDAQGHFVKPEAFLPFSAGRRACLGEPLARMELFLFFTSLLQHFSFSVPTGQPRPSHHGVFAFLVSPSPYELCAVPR

Row | SMILES | IC50 [1] [µM] | IC50 [2] [µM] | IC50 [3] [µM] | IC50 [4] [µM]
1 | O=C(O)Cc1cn([C@H]2C[C@H]3CCC[C@@H](C2)N3[C@H]2C[C@@H]3CCC[C@@H](C3)C2)c2ccccc12 [Compound 7] | > 20 | 14.6 | > 20 | > 20
2 | c1ccc2c(c1)ccn2[C@H]1C[C@H]2CCC[C@@H](C1)N2[C@H]1C[C@@H]2CCC[C@@H](C2)C1 [Compound 11] | > 20 | > 20 | > 20 | > 20
3 | O=C(O)Cc1cn([C@H]2C[C@H]3CCC[C@@H](C2)N3C2CCCCCCCCC2)c2ccccc12 [Compound 23, 2-(1-((1R,3r,5S)-9-cyclodecyl-9-azabicyclo[3.3.1]nonan-3-yl)-1H-indol-3-yl)acetic acid] | > 20 | 1.15 | > 20 | > 20
